These results are taken from PubChem BioAssay (NCI).

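Test compounds were applied to cells in 96-well plates for 48 hours at 5 doses. Definition used: TGI = concentration required for complete inhibition of growth.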 A value given as a limit tells only on which side of the number the result lay.

Test systems include OVCAR-3 ovarian; SK-MEL-28 melanoma; NCI-H522 lung; OVCAR-5 ovarian; BT-549 breast; T-47D breast; SR leukemia; SK-MEL-2 melanoma; RPMI-8226 leukemia; SF-295 CNS.
What all share (experiment): NCI tumour cell line growth inhibition, 48 h

Turning to `CC(C)(CN1CCCCC1)C(/C=C/c1ccc(Cl)cc1)=N\NC(=O)N/N=C(/C=C/c1ccc(Cl)cc1)C(C)(C)CN1CCCCC1`, the TGI is 10.7 µM in the assay on OVCAR-3 ovarian; 25.3 µM with SK-MEL-28 melanoma; 8.05 µM in the assay on NCI-H522 lung; 14.7 µM in the assay with OVCAR-5 ovarian; 13.2 µM in the assay on BT-549 breast; 13.6 µM in the assay with T-47D breast. In addition, the TGI in the assay with SR leukemia came out at 8.52 µM; in the assay on SK-MEL-2 melanoma it was 22.8 µM; in the assay on RPMI-8226 leukemia, 54.8 µM; with SF-295 CNS it was 33 µM.

`O=c1c(F)cn(Cc2c(Cl)cccc2Cl)c(=O)n1Cc1c(Cl)cccc1Cl`: the TGI with OVCAR-3 ovarian, in the assay on SK-MEL-28 melanoma, in the assay on NCI-H522 lung, with OVCAR-5 ovarian, in the assay on BT-549 breast and in the assay on T-47D breast was more than 31.6 µM in each case. For the same compound, the TGI with SR leukemia, in the assay with SK-MEL-2 melanoma, with RPMI-8226 leukemia and with SF-295 CNS was more than 31.6 µM in each case.

Turning to `CSC(=O)c1sc(SC)[n+](-c2ccccc2)c1O`, the TGI is 26.2 µM in the assay on OVCAR-3 ovarian; 34.9 µM in the assay on SK-MEL-28 melanoma; 24.8 µM in the assay with NCI-H522 lung; 49.6 µM in the assay on OVCAR-5 ovarian; 29.4 µM with BT-549 breast; 29.5 µM in the assay on T-47D breast. The TGI in the assay on SR leukemia was more than 100 µM; with SK-MEL-2 melanoma, 53.1 µM; with RPMI-8226 leukemia, more than 100 µM; with SF-295 CNS, 32 µM.

Take `COc1ccc(C2=CC(C(C)=C(C(N)=O)C(N)=O)C=C(c3ccc(Br)cc3)C2)c(OC)c1` (stereo not given): the TGI in the assay on OVCAR-3 ovarian, with SK-MEL-28 melanoma, in the assay on NCI-H522 lung, in the assay on OVCAR-5 ovarian, in the assay on BT-549 breast and in the assay on T-47D breast was more than 100 µM in each case. Further, the TGI in the assay on SR leukemia, with SK-MEL-2 melanoma, in the assay on RPMI-8226 leukemia and with SF-295 CNS was more than 100 µM in each case.

`Cc1ccc(S(=O)(=O)N2CC2CCCCC=O)cc1` (stereo not given): the TGI with OVCAR-3 ovarian, in the assay with SK-MEL-28 melanoma, in the assay on NCI-H522 lung, in the assay with OVCAR-5 ovarian, in the assay on BT-549 breast and in the assay on T-47D breast was more than 100 µM throughout. Moreover, the TGI in the assay with SR leukemia is 37.2 µM; with SK-MEL-2 melanoma, more than 100 µM; in the assay on RPMI-8226 leukemia, more than 100 µM; in the assay with SF-295 CNS it was more than 100 µM.

Turning to `COCOC1/C=C/CCCCC(=O)C(C)C#CC1` (stereo not given), the TGI was 10.9 µM in the assay with OVCAR-3 ovarian; 25.4 µM with SK-MEL-28 melanoma; 3.37 µM in the assay on NCI-H522 lung; 26.2 µM in the assay with OVCAR-5 ovarian; 19.3 µM with BT-549 breast; 6.39 µM in the assay on T-47D breast. The TGI in the assay with SR leukemia was 8.02 µM; in the assay on SK-MEL-2 melanoma it was 21.2 µM; in the assay on RPMI-8226 leukemia, 5.96 µM; in the assay on SF-295 CNS, 31.3 µM.

On to `N=c1oc2ccccc2cc1C(=O)NC12CC3CC(CC(C3)C1)C2`, for which the TGI is 37.5 µM with OVCAR-3 ovarian; more than 100 µM with SK-MEL-28 melanoma; 14.8 µM in the assay with NCI-H522 lung; more than 100 µM in the assay with OVCAR-5 ovarian; 50.6 µM in the assay with BT-549 breast; 22.7 µM in the assay on T-47D breast. Moreover, the TGI in the assay with SR leukemia was determined as 11.4 µM; with SK-MEL-2 melanoma it was 31.3 µM; in the assay on RPMI-8226 leukemia, 31.1 µM; with SF-295 CNS, 67.4 µM.

Take `O=c1[nH]c(=O)n(C2COC(CO)C2O)cc1F` (stereo not given): the TGI in the assay on OVCAR-3 ovarian, with SK-MEL-28 melanoma, with NCI-H522 lung, with OVCAR-5 ovarian, with BT-549 breast and with T-47D breast was more than 100 µM in each case. For the same compound, the TGI in the assay with SR leukemia, in the assay on SK-MEL-2 melanoma, in the assay on RPMI-8226 leukemia and in the assay with SF-295 CNS was more than 100 µM in each case.

Turning to `CC1=C/C(=N\NC(N)=S)C(C(O)(C(F)(F)F)C(F)(F)F)C(C)(C)C1` (stereo not given), the TGI with OVCAR-3 ovarian, with SK-MEL-28 melanoma, in the assay with NCI-H522 lung, with OVCAR-5 ovarian, with BT-549 breast and in the assay with T-47D breast was more than 10 µM throughout. Besides, the TGI in the assay with SR leukemia, with SK-MEL-2 melanoma, with RPMI-8226 leukemia and with SF-295 CNS was more than 10 µM each time.

As to `CC(C)=C[C@H]1C[C@H](C)[C@H]2CC[C@H](C)c3c2c1c(C)c1ncoc31`, the TGI was 28.7 µM in the assay with OVCAR-3 ovarian; 37 µM in the assay with SK-MEL-28 melanoma; 31.5 µM in the assay with NCI-H522 lung; 29.9 µM with OVCAR-5 ovarian; 36.3 µM in the assay with BT-549 breast; 37.9 µM in the assay on T-47D breast. Moreover, the TGI in the assay on SR leukemia was determined as 40.9 µM; in the assay on SK-MEL-2 melanoma, 31.1 µM; in the assay on RPMI-8226 leukemia, 36.9 µM; in the assay on SF-295 CNS it was 31.2 µM.

Turning to `COc1ccc(NC(=S)c2ccc(CN3CCCCC3)s2)cc1`, the TGI in the assay with OVCAR-3 ovarian is more than 100 µM; with SK-MEL-28 melanoma it was 33.8 µM; in the assay on NCI-H522 lung it was 32.5 µM; in the assay on OVCAR-5 ovarian, 34.1 µM; in the assay with BT-549 breast it was 44 µM; in the assay with T-47D breast, 60.7 µM. The TGI in the assay with SR leukemia worked out at 51.8 µM; in the assay with SK-MEL-2 melanoma, 36.9 µM; with RPMI-8226 leukemia, 74.7 µM; in the assay with SF-295 CNS it was 38.1 µM.

Consider `CCOC(=O)CCC(NC(=O)C(N)Cc1ccc(N(CCCl)CCCl)cc1)C(=O)OCC` (stereo not given), for which the TGI in the assay on OVCAR-3 ovarian is 1.68 µM; in the assay with SK-MEL-28 melanoma it was 2.18 µM; in the assay with NCI-H522 lung, 0.853 µM; in the assay on OVCAR-5 ovarian, 7.19 µM; in the assay on BT-549 breast, 12.4 µM; in the assay on T-47D breast it was 3.84 µM. For the same compound, the TGI was 14 µM in the assay on SR leukemia, 6.05 µM in the assay on SK-MEL-2 melanoma, 17.7 µM with RPMI-8226 leukemia and 11.7 µM in the assay on SF-295 CNS.

Take `O=C1C(Br)=C(Br)C(=O)c2ccc(=O)ccc21`: the TGI in the assay on OVCAR-3 ovarian was 41.8 µM; in the assay with SK-MEL-28 melanoma, 52 µM; in the assay on NCI-H522 lung, 7.25 µM; with OVCAR-5 ovarian, more than 86.7 µM; in the assay on BT-549 breast it was 44.6 µM; in the assay on T-47D breast it was 48.5 µM. Besides, the TGI in the assay with SR leukemia was 45 µM; in the assay with SK-MEL-2 melanoma, more than 75.1 µM; with RPMI-8226 leukemia, 43 µM; in the assay with SF-295 CNS, 50.9 µM.

For `O=C1c2cccc3cc([N+](=O)[O-])cc(c23)C(=O)N1Nc1ccc([N+](=O)[O-])cc1[N+](=O)[O-]`, the TGI was 82.8 µM in the assay with OVCAR-3 ovarian; 18 µM in the assay on SK-MEL-28 melanoma; 28.6 µM in the assay on NCI-H522 lung; more than 100 µM with OVCAR-5 ovarian; more than 31.6 µM in the assay on BT-549 breast; more than 31.6 µM with T-47D breast. For the same compound, the TGI with SR leukemia was 11.6 µM; in the assay with SK-MEL-2 melanoma, more than 100 µM; in the assay on RPMI-8226 leukemia it was more than 31.6 µM; with SF-295 CNS, more than 31.6 µM.

With `C[N+]12C=CC=C1C(N1CCCC1)c1scc(-c3ccc(Br)cc3)c12` (stereo not given), the TGI in the assay on OVCAR-3 ovarian was 39.1 µM; in the assay on SK-MEL-28 melanoma it was more than 60.5 µM; in the assay on NCI-H522 lung it was 9.89 µM; with OVCAR-5 ovarian, more than 100 µM; with BT-549 breast, 17.7 µM; in the assay on T-47D breast, 61.8 µM. For the same compound, the TGI in the assay with SR leukemia was 35.5 µM; in the assay with SK-MEL-2 melanoma it was 17.3 µM; with RPMI-8226 leukemia it was 28.9 µM; in the assay with SF-295 CNS, more than 100 µM.

`COc1cc2c(/C=C3/C(=O)Nc4cccc(Cl)c43)c(Cl)[nH]c2cc1C`: the TGI was determined as 4.29 µM with OVCAR-3 ovarian; 4.27 µM in the assay on SK-MEL-28 melanoma; 6.74 µM in the assay with NCI-H522 lung; 14.8 µM in the assay with OVCAR-5 ovarian; 3.67 µM in the assay on BT-549 breast; 5.48 µM with T-47D breast. For the same compound, the TGI was determined as 2.95 µM in the assay on SR leukemia, 12.3 µM with SK-MEL-2 melanoma, 4.69 µM in the assay on RPMI-8226 leukemia and 4.21 µM in the assay with SF-295 CNS.

Take `O=C(O)C1C2c3ccccc3C(c3ccccc32)C1C(=O)NCC1CC1` (stereo not given): the TGI in the assay on OVCAR-3 ovarian is more than 100 µM; in the assay with SK-MEL-28 melanoma it was more than 100 µM; in the assay with NCI-H522 lung, 86.9 µM; with OVCAR-5 ovarian it was more than 100 µM; in the assay on BT-549 breast, more than 100 µM; in the assay with T-47D breast, more than 100 µM. For the same compound, the TGI with SR leukemia was more than 100 µM; in the assay with SK-MEL-2 melanoma it was more than 100 µM; in the assay on RPMI-8226 leukemia it was 85.3 µM; in the assay on SF-295 CNS, more than 100 µM.
